The record followed here is PubChem BioAssay (NCI).

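Grown in 96-well plates, cells were treated for 48 hours with each compound at five concentrations. Insufficient inhibition: endpoint recorded as highest concentration tested. Definition used: TGI = concentration required for complete inhibition of growth.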

Some test systems named below: NCI-H522 lung; NCI-H226 lung; SF-295 CNS; UACC-257 melanoma; OVCAR-3 ovarian; MALME-3M melanoma; SF-539 CNS; RPMI-8226 leukemia; MDA-MB-231 breast; OVCAR-4 ovarian; UO-31 renal; NCI-H460 lung; BT-549 breast; SF-268 CNS; MDA-MB-435; M14 melanoma; HT29 colon.
Assay in all cases: NCI tumour cell line growth inhibition, 48 h

For `C(=C\c1cc[n+](CCc2ccccc2)cc1)/c1ccccc1`, the TGI in the experiment with NCI-H522 lung was 45.4 µM; in the experiment with NCI-H226 lung, 48.9 µM; in the experiment on SF-295 CNS it was above 100 µM; in the experiment on UACC-257 melanoma it was 17.5 µM; in the experiment on OVCAR-3 ovarian, 26.5 µM; in the experiment with MALME-3M melanoma, 28.6 µM. The TGI is 50.5 µM in the experiment with SF-539 CNS; 53.2 µM in the experiment on RPMI-8226 leukemia; 29.1 µM in the experiment with MDA-MB-231 breast; 50.9 µM in the experiment on OVCAR-4 ovarian; above 100 µM in the experiment with UO-31 renal; above 100 µM with NCI-H460 lung. For the same molecule, the TGI in the experiment with BT-549 breast turned out to be 57.9 µM; in the experiment with SF-268 CNS it was 74.5 µM; with MDA-MB-435, 18.4 µM; with M14 melanoma, 31.5 µM; with HT29 colon it was 35.1 µM.

With `COc1ccc(NC(=S)c2ccc([N+](=O)[O-])o2)cc1`, the TGI was found to be 2.92 µM with NCI-H522 lung; 8.75 µM in the experiment with NCI-H226 lung; 10.6 µM in the experiment with SF-295 CNS; 7.2 µM in the experiment on UACC-257 melanoma; 4.42 µM in the experiment on OVCAR-3 ovarian; 7.83 µM in the experiment on MALME-3M melanoma. Moreover, the TGI with SF-539 CNS came to 0.549 µM; in the experiment with RPMI-8226 leukemia it was 4.72 µM; in the experiment with MDA-MB-231 breast, 6.35 µM; in the experiment on OVCAR-4 ovarian, 3.07 µM; in the experiment on UO-31 renal, 5.09 µM; in the experiment with NCI-H460 lung it was 5.72 µM. In addition, the TGI came to 4.69 µM in the experiment on BT-549 breast; 9.76 µM with SF-268 CNS; 5.66 µM with MDA-MB-435; 7.28 µM in the experiment with M14 melanoma; 3.7 µM in the experiment with HT29 colon.

With `CC1C(OS(=O)(=O)c2ccc3[nH]c(=S)sc3c2)CC2C3(C)CCC2(C(C)C(=O)O)C(O)C13` (stereo not drawn), the TGI in the experiment on NCI-H522 lung was 17.2 µM; in the experiment on NCI-H226 lung it was 60.4 µM; with SF-295 CNS, 95.1 µM; with UACC-257 melanoma, above 100 µM; in the experiment on OVCAR-3 ovarian, 42.5 µM; in the experiment on MALME-3M melanoma it was 83.8 µM. Further, the TGI with SF-539 CNS was 46 µM; in the experiment with RPMI-8226 leukemia it was 40.8 µM; in the experiment with MDA-MB-231 breast it was above 100 µM; in the experiment on OVCAR-4 ovarian, 94.2 µM; in the experiment on UO-31 renal it was 39.8 µM; in the experiment with NCI-H460 lung it was above 100 µM. Moreover, the TGI in the experiment with BT-549 breast was 66 µM; in the experiment with SF-268 CNS, above 100 µM; in the experiment with MDA-MB-435 it was 47.8 µM; in the experiment with M14 melanoma it was 84.1 µM; in the experiment with HT29 colon, 35.4 µM.

For the molecule `CCCN1C(=O)CN(S(=O)(=O)c2ccc(Cl)cc2)C1=O`, the TGI with NCI-H522 lung, with NCI-H226 lung, in the experiment with SF-295 CNS, in the experiment on UACC-257 melanoma, in the experiment on OVCAR-3 ovarian and in the experiment with MALME-3M melanoma was above 100 µM each time. The TGI with SF-539 CNS, in the experiment with RPMI-8226 leukemia, in the experiment on MDA-MB-231 breast, in the experiment on OVCAR-4 ovarian, with UO-31 renal and in the experiment with NCI-H460 lung was above 100 µM each time. The TGI with BT-549 breast, in the experiment on SF-268 CNS, with MDA-MB-435, with M14 melanoma and in the experiment on HT29 colon was above 100 µM throughout.

For the molecule `CN(/N=C/c1ccccn1)C1=NCCN1`, the TGI with NCI-H522 lung, in the experiment with NCI-H226 lung, in the experiment on SF-295 CNS, with UACC-257 melanoma, in the experiment with OVCAR-3 ovarian and in the experiment on MALME-3M melanoma was above 100 µM in each case. In addition, the TGI in the experiment with SF-539 CNS, in the experiment on RPMI-8226 leukemia, in the experiment on MDA-MB-231 breast, in the experiment on OVCAR-4 ovarian, with UO-31 renal and in the experiment with NCI-H460 lung was above 100 µM in each case. For the same molecule, the TGI in the experiment on BT-549 breast, in the experiment on SF-268 CNS, in the experiment with MDA-MB-435, with M14 melanoma and in the experiment on HT29 colon was above 100 µM throughout.

`NCCc1ccc(S(=O)(=O)O)cc1[N+](=O)[O-]`: the TGI with NCI-H522 lung, with NCI-H226 lung, in the experiment with SF-295 CNS, in the experiment with UACC-257 melanoma, in the experiment with OVCAR-3 ovarian and with MALME-3M melanoma was above 100 µM in each case. The TGI with SF-539 CNS, with RPMI-8226 leukemia, with MDA-MB-231 breast, with OVCAR-4 ovarian, in the experiment on UO-31 renal and in the experiment with NCI-H460 lung was above 100 µM throughout. In addition, the TGI in the experiment with BT-549 breast, in the experiment on SF-268 CNS, in the experiment on MDA-MB-435, in the experiment on M14 melanoma and in the experiment with HT29 colon was above 100 µM throughout.

Consider `C[C@H]1CCC/C=C/[C@@H]2C[C@H](OC(=O)CN(C)C)C[C@H]2[C@H](O)/C=C/C(=O)O1`, for which the TGI in the experiment with NCI-H522 lung is 1.39 µM; in the experiment with NCI-H226 lung, 0.133 µM; in the experiment on SF-295 CNS, above 100 µM; in the experiment on UACC-257 melanoma it was 27.8 µM; with OVCAR-3 ovarian, above 26.8 µM; in the experiment with MALME-3M melanoma, 0.15 µM. Moreover, the TGI with SF-539 CNS is above 48.2 µM; in the experiment with RPMI-8226 leukemia, above 26.6 µM; with MDA-MB-231 breast, 0.0327 µM; with OVCAR-4 ovarian, 9.64 µM; with UO-31 renal, 1.48 µM; with NCI-H460 lung, 4.05 µM. The TGI was above 71 µM with BT-549 breast; above 100 µM in the experiment on SF-268 CNS; above 100 µM in the experiment with MDA-MB-435; above 19.9 µM in the experiment with M14 melanoma; 1.07 µM in the experiment on HT29 colon.

`CC(=O)n1c2ccc(Br)cc2c2nc3ccccc3nc21`: the TGI in the experiment on NCI-H522 lung, in the experiment with NCI-H226 lung, in the experiment with SF-295 CNS, in the experiment with UACC-257 melanoma, in the experiment with OVCAR-3 ovarian and in the experiment with MALME-3M melanoma was above 100 µM throughout. The TGI with SF-539 CNS, with RPMI-8226 leukemia, in the experiment on MDA-MB-231 breast, with OVCAR-4 ovarian, in the experiment with UO-31 renal and with NCI-H460 lung was above 100 µM in each case. The TGI with BT-549 breast, in the experiment with SF-268 CNS, in the experiment with MDA-MB-435, in the experiment on M14 melanoma and in the experiment on HT29 colon was above 100 µM throughout.

With `Cc1nc2ccc(N=Nc3c(C)noc3C)cc2[nH]1`, the TGI with NCI-H522 lung is above 100 µM; in the experiment with NCI-H226 lung it was above 100 µM; with SF-295 CNS, above 100 µM; in the experiment with UACC-257 melanoma it was above 100 µM; with OVCAR-3 ovarian it was 84.2 µM; with MALME-3M melanoma it was above 100 µM. Further, the TGI is 70.7 µM in the experiment with SF-539 CNS; 92.4 µM with RPMI-8226 leukemia; 96.6 µM in the experiment with MDA-MB-231 breast; above 100 µM in the experiment with OVCAR-4 ovarian; above 100 µM in the experiment with UO-31 renal; above 100 µM in the experiment on NCI-H460 lung. For the same molecule, the TGI with BT-549 breast was above 100 µM; in the experiment on SF-268 CNS it was above 100 µM; with MDA-MB-435, above 100 µM; with M14 melanoma, above 100 µM; in the experiment with HT29 colon, 71.1 µM.
